From US20100234400A1, “COMPOUNDS THAT MAINTAIN PLURIPOTENCY OF EMBRYONIC STEM CELLS” (IRM LLC, priority 2005, published 2010)

Each compound was assayed on Mouse embryonic stem cells (assay: Mouse ES cells keep pluripotency under differentiation medium (DM)). Conditions: Embryonic stem cell, 144 h, measured by maintenance of GFP expression and colony morphology, differentiation medium (BM+0.3 μM RA or DMEM, 20% FBS), 3 + 3 days incubation.
Format: cell-based
From the text: Materials used for ES cell maintenance, and examples 4 & 5, infra, include: Oct4-GFP mES cells (feeder layer dependent cells); mES R1 cells (feeder layer independent cells); DMEM (GIBCO, 11965-084); Kouckout DMEM (KO DMEM) (GIBCO, 10829-018); DMEM/F12 (GIBCO, 11330-032); Fetal Bovine Serum (FBS) (GIBCO, 26140-079); Knockout Serum Replacer (KO-SR), (GIBCO, 10828-028); B-27 Serum-free Supplement (50X), (GIBCO017504-044); N-2 Supplement (100X) (GIBCO, 17502-048); LIF (10^6 units) (Chemicon, ESG1106); L-Glutamine (GIBCO, 25030-081); Non-essential amino acids (GIBCO, 11140-050); 2-Mercaptoethanol (1000X), (GIBCO, 21985-023); 0.05% Trypsin-EDTA (GIBCO, 25300-054); 0.1% gelatin solution (Stemcell tech., 07903); Basal medium (BM): KO DMEM, 15% KO-SR, 1X L-glutamine, 1X non-essential amino acid, 1×2-mercaptoethanol; and Growth medium (GM): Basal medium+10^3 unit LIF.
DM induced by retinoic acid (RA): BM+0.3 μM RA, DM induced by FBS: DMEM, 20% FBS. Ninety-six well plates are coated with 0.1% gelatin solution at 37° C. overnight. The gelatin solution is removed by aspiration. Mouse embryonic stem cells are plated on gelatin-coated plates at 10^4 cells/50 μl GM/well. After overnight incubation, the medium is changed to DM and 3 μM of a compound of the invention is added to each well. After 3 days incubation, the medium is replaced with fresh medium and compound. After a further 3 days, the cells are fixed and assayed with pluripotent markers expression and colony morphology. An effective concentration is measured by the maintenance of GFP expression and colony morphology. A list of effective concentrations for various compounds of the invention is disclosed in table 3, infra
Compound `Cc1ccc(NC(=O)c2cccc(C(F)(F)F)c2)cc1N1Cc2cnc(Nc3cccc(NS(C)(=O)=O)c3)nc2N(C)C1=O` [N-{3-[7-(3-Methanesulfonylamino-phenylamino)-1-methyl-2-oxo-1,4-dihydro-2H-pyrimido[4,5-d]pyrimidin-3-yl]-4-methyl-phenyl}-3-trifluoromethyl-benzamide] has a minimal effective concentration of 2 µM.
`CCNc1ncc2c(n1)N(C)C(=O)N(c1cc(NC(=O)c3cccc(C(F)(F)F)c3)ccc1C)C2` [N-[3-(7-Ethylamino-1-methyl-2-oxo-1,4-dihydro-2H-pyrimido[4,5-d]pyrimidin-3-yl)-4-methyl-phenyl]-3-trifluoromethyl-benzamide] showed a minimal effective concentration of 10 µM.
With `Cc1cc(Nc2ncc3c(n2)N(C)C(=O)N(c2cc(NC(=O)c4cccc(C(F)(F)F)c4)ccc2C)C3)cc(C)n1` [N-{3-[7-(2,6-Dimethyl-pyridin-4-ylamino)-1-methyl-2-oxo-1,4-dihydro-2H-pyrimido[4,5-d]pyrimidin-3-yl]-4-methyl-phenyl}-3-trifluoromethyl-benzamide] the minimal effective concentration was 5 µM.
`CCn1nccc1Nc1ncc2c(n1)N(C)C(=O)N(c1cc(NC(=O)c3cccc(C(F)(F)F)c3)ccc1C)C2` [N-{3-[7-(2-Ethyl-2H-pyrazol-3-ylamino)-1-methyl-2-oxo-1,4-dihydro-2H-pyrimido[4,5-d]pyrimidin-3-yl]-4-methyl-phenyl}-3-trifluoromethyl-benzamide] showed a minimal effective concentration of 2 µM.
`Cc1ccc(NC(=O)c2cccc(C(F)(F)F)c2)cc1N1Cc2cnc(Nc3cccc(O)c3)nc2N(C)C1=O` [N-{3-[7-(3-Hydroxy-phenylamino)-1-methyl-2-oxo-1,4-dihydro-2H-pyrimido[4,5-d]pyrimidin-3-yl]-4-methyl-phenyl}-3-trifluoromethyl-benzamide] was tested, and the minimal effective concentration was 1 µM.
`CNc1ncc2c(n1)N(C)C(=O)N(c1cc(NC(=O)c3cccc(C(F)(F)F)c3)ccc1C)C2` [N-[4-Methyl-3-(1-methyl-7-methylamino-2-oxo-1,4-dihydro-2H-pyrimido[4,5-d]pyrimidin-3-yl)-phenyl]-3-trifluoromethyl-benzamide] showed a minimal effective concentration of 3 µM.
Compound `Cc1ccc(NC(=O)c2cccc(C(F)(F)F)c2)cc1N1Cc2cnc(Nc3cccc(N)c3)nc2N(C)C1=O` [N-{3-[7-(3-Amino-phenylamino)-1-methyl-2-oxo-1,4-dihydro-2H-pyrimido[4,5-d]pyrimidin-3-yl]-4-methyl-phenyl}-3-trifluoromethyl-benzamide] has a minimal effective concentration of 2 µM.
`Cc1ccc(NC(=O)c2cccc(C(F)(F)F)c2)cc1N1Cc2cnc(Nc3ccnn3C)nc2N(C)C1=O` [N-{4-Methyl-3-[1-methyl-7-(2-methyl-2H-pyrazol-3-ylamino)-2-oxo-1,4-dihydro-2H-pyrimido[4,5-d]pyrimidin-3-yl]-phenyl}-3-trifluoromethyl-benzamide] showed a minimal effective concentration of 1 µM.
In the case of `Cc1cc(Nc2ncc3c(n2)N(C)C(=O)N(c2cc(NC(=O)c4cccc(C(F)(F)F)c4)ccc2C)C3)n(C)n1` [N-{3-[7-(2,5-Dimethyl-2H-pyrazol-3-ylamino)-1-methyl-2-oxo-1,4-dihydro-2H-pyrimido[4,5-d]pyrimidin-3-yl]-4-methyl-phenyl}-3-trifluoromethyl-benzamide], the minimal effective concentration is reported as 1 µM.
